For data set [1], the system named is hPSC-derived hIOs. Briefly: Growth / size (surface area, budding) of hPSC-derived hIOs. To be noted: for stimulation of IL-2 on hIO growth in presence of inhibitor: with IL-2, S31-201 10 μM, Stattic 1 μM, Rapamycin 10 nM; for growth of hIOs with many crypt-like budding structures: treatment with STAT3 activators. The data set is classed as cell-based, human. On the procedure: To estimate the size of hIOs, surface areas of horizontal cross-sections of hIOs were measured.

Data set [2] concerns p-STAT3 (Y705). Kind of data set: Phospho-STAT3 immunostaining of hIOs. The data set is classed as cell-based, human. To be noted: IL-2 treated Mat-hIOs; Stattic 1 μM or S3I-201 10 μM. The method, then: (§1) An immunofluorescence analysis was performed according to a known method (Kwak et al., Biochemical and biophysical research communications 457, 554-560, 2015). In detail, hPSCs and definitive endodermal cells were fixed in 4% paraformaldehyde (PFA) and then permeabilized with PBS containing 0.1% Triton X-100.
(§2) hIOs and tissues were fixed, cryo-protected in sucrose, and frozen using an optimal-cutting-temperature (OCT) compound (Sakura Finetek, Tokyo, Japan). Then, frozen sections were cut at a thickness of 10-20 μm using a cryostat microtome at −20° C. and permeabilized with PBS containing 0.1% Triton X-100 for immunofluorescence analysis.
(§3) In detail, after being blocked with 4% BSA, cells were incubated with primary antibodies at 4° C. overnight, and then incubated with secondary antibodies for 1 hr at room temperature. The used primary antibodies are as in Table 2. Paraffin sections were deparaffinized, subjected to antigen retrieval, and stained in a similar manner to OCT sections. DAPI was added to visualize nuclei. Slides were examined with an Axiovert 200M microscope (Carl Zeiss, Gottingen, Germany) or a fluorescence microscope (IX51, Olympus, Japan).

For data set [3], the system named is hIOs. Briefly: qPCR of intestinal maturation markers in hIOs. The data set is classed as cell-based, human. The following applies: colivelin treatment compared with control hIOs. On the procedure: Total RNA was extracted from cells using an RNeasy Kit (Qiagen), and reverse-transcribed using a Superscript III cDNA synthesis kit (Invitrogen). qRT-PCR was performed by a method disclosed in a 7500 Fast Real-time PCR system (Applied Biosystems, Foster City, CA, USA) (Cho et al., Oncotarget 6, 23837-23844, 2015). All experiments were performed in triplicate, and CT value of each target gene was calculated using a software provided by the manufacturer. Nucleotide sequences of the used primers are as in Table 1.

In data set [4] the test system is hIOs. Briefly: Immunofluorescence staining of marker proteins in hIOs. The data set is classed as cell-based, human. To be noted: colivelin treatment. On the procedure:
as §1, §2, §3

The target in data set [5] is P-glycoprotein (P-gp)/MDR1 (Homo sapiens, UniProt P08183). The following applies: paclitaxel 10 μM basolateral, 2 hr incubation.
Sequence of P-glycoprotein (P-gp)/MDR1 (P08183 whole entry): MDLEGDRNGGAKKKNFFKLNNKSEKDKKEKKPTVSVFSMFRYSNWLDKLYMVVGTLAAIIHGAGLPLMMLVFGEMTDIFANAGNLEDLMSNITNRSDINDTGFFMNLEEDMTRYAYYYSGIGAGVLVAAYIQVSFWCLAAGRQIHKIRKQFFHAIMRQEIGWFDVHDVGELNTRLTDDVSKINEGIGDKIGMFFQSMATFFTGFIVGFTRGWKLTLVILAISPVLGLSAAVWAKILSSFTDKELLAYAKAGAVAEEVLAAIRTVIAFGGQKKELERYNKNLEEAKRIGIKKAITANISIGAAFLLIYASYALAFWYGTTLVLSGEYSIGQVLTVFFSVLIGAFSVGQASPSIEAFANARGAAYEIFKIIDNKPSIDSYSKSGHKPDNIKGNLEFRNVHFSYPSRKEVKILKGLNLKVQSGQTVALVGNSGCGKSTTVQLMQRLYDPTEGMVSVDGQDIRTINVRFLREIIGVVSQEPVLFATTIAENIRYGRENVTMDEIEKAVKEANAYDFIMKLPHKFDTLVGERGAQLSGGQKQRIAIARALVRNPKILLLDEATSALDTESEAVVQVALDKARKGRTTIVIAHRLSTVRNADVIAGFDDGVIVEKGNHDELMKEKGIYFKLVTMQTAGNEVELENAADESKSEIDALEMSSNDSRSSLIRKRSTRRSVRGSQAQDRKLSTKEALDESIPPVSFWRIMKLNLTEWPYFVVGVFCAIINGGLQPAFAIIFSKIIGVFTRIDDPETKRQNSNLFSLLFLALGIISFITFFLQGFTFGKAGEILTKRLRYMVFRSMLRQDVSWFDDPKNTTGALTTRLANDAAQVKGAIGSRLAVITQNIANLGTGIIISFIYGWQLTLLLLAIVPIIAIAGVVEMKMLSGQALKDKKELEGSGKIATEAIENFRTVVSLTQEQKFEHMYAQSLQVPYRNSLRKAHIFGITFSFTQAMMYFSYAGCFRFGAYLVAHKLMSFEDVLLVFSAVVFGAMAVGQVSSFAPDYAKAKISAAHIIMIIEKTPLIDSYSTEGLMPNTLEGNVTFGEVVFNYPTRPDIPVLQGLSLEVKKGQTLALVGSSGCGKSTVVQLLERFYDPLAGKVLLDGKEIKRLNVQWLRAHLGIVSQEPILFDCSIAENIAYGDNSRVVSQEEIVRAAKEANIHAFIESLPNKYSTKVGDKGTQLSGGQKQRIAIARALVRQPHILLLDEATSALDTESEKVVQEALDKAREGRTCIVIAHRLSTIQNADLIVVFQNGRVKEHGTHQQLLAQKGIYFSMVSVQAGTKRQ
Data set [6] has as its target T1, CFTR (Homo sapiens, UniProt P13569).
T1 construct: To examine the function of CFTR present in mature intestine epithelial cells in organoid models; endogenous in cells; host or cells: hPSC-derived human intestinal organoids (control, co-cultured with Jurkat T cells, or IL-2-treated)
Kind of data set: Forskolin-induced organoid swelling assay (CFTR function). The data set is classed as cell-based. The following applies: mature organoids, forskolin 25 uM, 120 minutes. The method, then:
To examine the function of CFTR present in mature intestine epithelial cells in organoid models, forskolin-induced organoid swelling assay was performed. Control and co-cultured or IL-2-treated hIOs (n=4) were treated with forskolin (25 uM, Merckmillopore), and then morphological observation was performed for 120 min at 20 min intervals through live imaging function of a microscope (IX83, Olympus). CFTR inhibitors (CFTRinh172, GlyH101) were co-treated, and morphological observation was performed for the same time. The size of organoids was calculated every hour, and mean values thereof were used to plot a graph.

Like-named read-outs stand apart in the source and are kept apart here.

T1 sequence (P13569 whole entry): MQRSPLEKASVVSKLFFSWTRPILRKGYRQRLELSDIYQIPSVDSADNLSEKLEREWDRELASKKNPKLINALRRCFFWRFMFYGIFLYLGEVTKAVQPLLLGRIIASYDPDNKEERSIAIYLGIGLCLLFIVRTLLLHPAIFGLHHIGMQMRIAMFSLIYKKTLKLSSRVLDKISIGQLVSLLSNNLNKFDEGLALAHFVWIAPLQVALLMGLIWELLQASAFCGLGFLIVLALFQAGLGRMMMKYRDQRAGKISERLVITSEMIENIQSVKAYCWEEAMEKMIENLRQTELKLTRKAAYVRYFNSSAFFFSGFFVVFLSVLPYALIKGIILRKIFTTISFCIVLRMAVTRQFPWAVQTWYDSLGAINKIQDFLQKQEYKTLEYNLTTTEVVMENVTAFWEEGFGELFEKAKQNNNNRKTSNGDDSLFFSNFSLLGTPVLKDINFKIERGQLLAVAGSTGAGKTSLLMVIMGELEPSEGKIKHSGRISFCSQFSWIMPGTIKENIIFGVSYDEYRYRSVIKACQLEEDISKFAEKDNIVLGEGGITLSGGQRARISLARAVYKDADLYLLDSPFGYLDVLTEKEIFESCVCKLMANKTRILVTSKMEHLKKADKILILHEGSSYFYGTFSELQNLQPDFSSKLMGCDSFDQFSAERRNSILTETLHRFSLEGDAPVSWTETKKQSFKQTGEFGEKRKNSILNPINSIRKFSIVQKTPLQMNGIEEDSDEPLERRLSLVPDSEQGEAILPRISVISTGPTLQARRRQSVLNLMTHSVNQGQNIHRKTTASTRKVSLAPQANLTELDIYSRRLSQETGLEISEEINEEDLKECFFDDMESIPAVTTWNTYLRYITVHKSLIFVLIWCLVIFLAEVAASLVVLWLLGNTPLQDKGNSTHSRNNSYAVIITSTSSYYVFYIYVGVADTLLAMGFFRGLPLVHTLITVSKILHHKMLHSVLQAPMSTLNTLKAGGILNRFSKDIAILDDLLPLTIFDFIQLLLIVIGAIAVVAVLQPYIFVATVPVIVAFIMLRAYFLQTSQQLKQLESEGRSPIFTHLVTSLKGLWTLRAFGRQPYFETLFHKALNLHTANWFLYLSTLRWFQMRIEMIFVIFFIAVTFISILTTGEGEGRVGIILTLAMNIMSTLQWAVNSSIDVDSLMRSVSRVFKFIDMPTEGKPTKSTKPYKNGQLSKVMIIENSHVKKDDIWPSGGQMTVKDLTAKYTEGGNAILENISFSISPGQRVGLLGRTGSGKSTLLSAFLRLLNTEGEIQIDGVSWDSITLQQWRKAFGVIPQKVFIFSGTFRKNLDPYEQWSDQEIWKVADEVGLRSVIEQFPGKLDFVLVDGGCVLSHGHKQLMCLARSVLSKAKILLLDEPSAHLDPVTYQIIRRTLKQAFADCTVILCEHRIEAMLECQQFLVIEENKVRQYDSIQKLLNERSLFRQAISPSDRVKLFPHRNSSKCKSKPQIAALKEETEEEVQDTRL

On to `Cc1ccc(S(=O)(=O)OCC(=O)Nc2ccc(C(=O)O)c(O)c2)cc1` [S3I-201], for which the “stimulation of IL-2 on hIO growth in presence of inhibitor” value in data set [1] was “prevented”. Also, in data set [2], the “phosphorylation of STAT3 at tyrosine 705 (Y705)” value is reported as “blocked”.

On to Colivelin, for which the “expression of intestinal maturation markers” value in data set [3] is given as “increased”. In data set [1], the “growth of hIOs with many crypt-like budding structures” value is reported as “promoted the growth”. In addition, the “size of hIO” value in data set [1] (various concentrations of colivelin) is listed as “increased”. In addition, the “protein expression of Ki-67, OLFM4, MUC13 and KRT20” value in data set [4] is on record as “increased”.

Take `CC(=O)O[C@H]1C(=O)[C@@]2(C)[C@H]([C@H](OC(=O)c3ccccc3)[C@]3(O)C[C@H](OC(=O)[C@H](O)[C@@H](NC(=O)c4ccccc4)c4ccccc4)C(C)=C1C3(C)C)[C@]1(OC(C)=O)CO[C@@H]1C[C@@H]2O` [paclitaxel]: the “concentration of paclitaxel at the apical side, increase compared with control hIOs” value in data set [5] (IL-2-treated hIOs) was ~3 fold; in data set [5] (co-cultured hIOs), “approximately 2.3 fold”.

Regarding `O=C(CNc1ccc2ccccc2c1)N/N=C/c1cc(Br)c(O)c(Br)c1O` [GlyH101], the “forskolin-induced swelling effect under CFTR inhibitor” value in data set [6] was “completely blocked”.

`O=[N+]([O-])c1ccc2c(c1)S(=O)(=O)C=C2` [Stattic]: the “stimulation of IL-2 on hIO growth in presence of inhibitor” value in data set [1] is “prevented”. Also, the “phosphorylation of STAT3 at tyrosine 705 (Y705)” value in data set [2] is recorded as “blocked”.

For the molecule `O=C(O)c1ccc(/C=C2\SC(=S)N(c3cccc(C(F)(F)F)c3)C2=O)cc1` [CFTRinh172], the “forskolin-induced swelling effect under CFTR inhibitor” value in data set [6] is given as “completely blocked”.

B1: IL-22: another known STAT3 activator, cytokine (protein, UniProt Q9GZX6 34-179, looked up)
Interleukin-22: APISSHCRLDKSNFQQPYITNRTFMLAKEASLADNNTDVRLIGEKLFHGVSMSERCYLMKQVLNFTLEEVLFPQSDRFQPYMQEVVPFLARLSNRLSTCHIEGDDLHIQRNVQKLKDTVKKLGESGEIKAIGELDLLFMSLRNACI
With B1, the “growth of hIOs with many crypt-like budding structures” value in data set [1] is reported as “promoted the growth”.

(Values after US12180508B2, “Method of preparing in vitro-matured human intestinal organoids and use thereof” (KOREA RESEARCH INSTITUTE OF BIOSCIENCE AND BIOTECHNOLOGY, priority 2018, dated 2024).)
